The experiment deals with T1, neuronal SNAREs and Syt1(QM) (Rattus norvegicus, UniProt P21707, E295A/R281A/R398A/R399A/Y338W).
T1 construct: made in house
Put plainly: Single-vesicle content mixing assay, neuronal SNAREs and Syt1(QM). It counts as biochemical.

Where [1] appears, read: 10 μM SP9, each value one repeat experiment.
[2] abbreviates: 500 μM Ca2+, 10 μM SP9, each value one repeat experiment.

Values joined by “and” are separate entries in the source; they are usually repeats but may differ in a detail not shown here. Equal entries are not always repeated. Positions of bridges follow the written chain, without caps; N, C: chain ends. Non-standard residues stand in square brackets, D forms with d. Residues, ends and D or L forms follow the SMILES beside them. S5 = C=CCCC[C@](C)(N)C(=O)O

T1 sequence (P21707 whole entry R281A/E295A/Y338W/R398A/R399A): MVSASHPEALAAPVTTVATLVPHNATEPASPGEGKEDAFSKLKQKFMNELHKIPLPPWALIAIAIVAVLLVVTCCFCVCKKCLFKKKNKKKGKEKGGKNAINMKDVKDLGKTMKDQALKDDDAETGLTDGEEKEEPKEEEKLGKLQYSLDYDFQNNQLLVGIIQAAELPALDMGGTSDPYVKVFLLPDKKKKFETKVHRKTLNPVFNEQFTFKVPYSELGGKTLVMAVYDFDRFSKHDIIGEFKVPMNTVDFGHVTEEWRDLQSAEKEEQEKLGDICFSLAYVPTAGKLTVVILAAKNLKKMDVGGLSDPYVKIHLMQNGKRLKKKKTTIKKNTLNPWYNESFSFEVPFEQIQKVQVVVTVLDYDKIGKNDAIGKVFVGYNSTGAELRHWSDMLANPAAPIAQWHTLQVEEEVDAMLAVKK

In the case of `CC[C@H](C)[C@H](NC(=O)[C@]1(C)CCCC=CCCC[C@](C)(NC(=O)[C@H](CCC(=O)O)NC(=O)[C@H](CCC(=O)O)NC(C)=O)C(=O)N[C@@H](CCCCN)C(=O)N[C@@H](CC(=O)O)C(=O)N[C@@H](C)C(=O)N1)C(=O)N[C@@H](CCCNC(=N)N)C(=O)N[C@@]1(C)CCCC=CCCC[C@@](C)(C(=O)N[C@@H](CC(=O)O)C(=O)N[C@@H](CCC(=O)O)C(=O)N[C@@H](CCC(N)=O)C(=O)N[C@@H](CS)C(N)=O)NC(=O)[C@H](CCSC)NC(=O)[C@H](C(C)C)NC(=O)[C@H](CC(C)C)NC1=O` [SP9] (Ac-EE[S5]KDA[S5]IR[S5]LVM[S5]DEQC-NH2; staple 3-7, 10-14), under setting [1], the “Ca2+ independent fusion per sec (average probability)” value was 0.0007051 and 0.0008431 and 0.0008917; the Vesicle association is 67 and 40 and 70. Also, under setting [2], the “Ca2+ triggered fusion accumulative probability (within 1 min)” value was 0.0513 and 0.04654 and 0.06303; the “Ca2+ triggered fusion amplitude (first 1-sec time bin)” value is 0.004413 and 0.005288 and 0.004669. Moreover, the “effect on Ca2+-independent or Ca2+-triggered fusion with Syt1(QM)” value (SP9 vs no peptide) is listed as “little effect”.

(Values after publication PMC8967716, “Inhibition of calcium-triggered secretion by hydrocarbon-stapled peptides” (Nature, 2022).)
